Source: US11168102B1, “Bicyclic heteroaryl compounds and uses thereof” (Revolution Medicines, Inc., priority 2019, dated 2021)

tested on: cellular pERK in PC-9 cells (EGFR Ex19Del); experiment: Potency assay: pERK (AlphaLISA SureFire Ultra p-ERK1/2) in PC-9 cells; format: cell-based; conditions: Homo sapiens, PC-9, 1 h, PC-9 cells (EGFR Ex19Del), 1 hour incubation, AlphaLISA SureFire Ultra p-ERK1/2; read-out: SOS1 pERK IC50

Row | SMILES | IC50 [nM]
1 | COn1c(=O)c(C2CCS(=O)(=O)CC2)cc2c(N[C@H](C)c3cccc(C(F)F)c3F)ncnc21 [Example 53, 4-(4-{[(1R)-1-[3-(difluoromethyl)-2-fluorophenyl]ethyl]amino}-8-methoxy-7-oxo-7H,8H-pyrido[2,3-d]pyrimidin-6-yl)-1λ^6-thiane-1,1-dione] | 36.7
2 | Cc1nc(N[C@H](C)c2cc(N)cc(C(F)(F)F)c2)c2cc(C3=CCOCC3)c(=O)n(C)c2n1 [Example 7, (R)-4-((1-(3-amino-5-(trifluoromethyl)phenyl)ethyl)amino)-6-(3,6-dihydro-2H-pyran-4-yl)-2,8-dimethylpyrido[2,3-d]pyrimidin-7(8H)-one] | 72.4
3 | CC(=O)N1CCC(c2cc3c(N[C@H](C)c4cc(C(F)F)c5cc[nH]c5c4)ncnc3n(C)c2=O)CC1 [Example 48, 6-(1-acetyl-4-piperidyl)-4-[[(1R)-1-[4-(difluoromethyl)-1H-indol-6-yl]ethyl]amino]-8-methyl-pyrido[2,3-d]pyrimidin-7-one] | 1520
4 | C[C@@H](Nc1ncnc2c1cc(C1=CCCNC1)c(=O)n2C)c1cccc(C(F)F)c1F [Example 1-4] | 43.1
5 | C[C@@H](Nc1ncnc2c1cc(C1=CC[P@](C)(=O)CC1)c(=O)n2C)c1cccc(C(F)F)c1F [Example 1-32] | 93.1
6 | CC(=O)N1CCC(c2cc3c(N[C@H](C)c4cc(C(F)F)cc(C5(F)CNC5)c4)ncnc3n(C)c2=O)CC1 [Example 43, 6-(1-acetyl-4-piperidyl)-4-[[(1R)-1-[3-(difluoromethyl)-5-(3-fluoroazetidin-3-yl)phenyl]ethyl]amino]-8-methyl-pyrido[2,3-d]pyrimidin-7-one] | > 7290
7 | C[C@@H](Nc1ncnc2c1cc(C(=O)N1CCc3cnccc31)c(=O)n2C)c1cccc(C(F)F)c1F [Example 26-27] | 803
8 | Cc1nc(N[C@H](C)c2cccc(C(F)(F)CO)c2)c2cc(C3=CCNCC3)c(=O)n(C)c2n1 [Example 4, (R)-4-((1-(3-(1,1-difluoro-2-hydroxyethyl)phenyl)ethyl)amino)-2,8-dimethyl-6-(1,2,3,6-tetrahydropyridin-4-yl)pyrido[2,3-d]pyrimidin-7(8H)-one] | 481
9 | C[C@@H](Nc1ncnc2c1cc(C1CCS(=N)(=O)CC1)c(=O)n2C)c1cccc(C(F)F)c1F (stereo partly drawn) [Example 67, 4-[[(1R)-1-[3-(difluoromethyl)-2-fluoro-phenyl]ethyl]amino]-6-(1-imino-1-oxo-thian-4-yl)-8-methyl-pyrido[2,3-d]pyrimidin-7-one] | 16.1
10 | C[C@@H](Nc1ncnc2c1cc(C(=O)N(C)c1cccnc1)c(=O)n2C)c1cccc(C(F)F)c1F [Example 26-10] | 2090
11 | C[C@@H](Nc1ncnc2c1cc(C(=O)N1CCCC13COC3)c(=O)n2C)c1cccc(C(F)F)c1F [Example 26-14] | 122
12 | Cc1nc(N[C@H](C)c2cc(N)cc(C(F)(F)F)c2)c2cc(C3=CCNCC3)c(=O)n(C)c2n1 [Example 6, 4-[[(1R)-1-[3-amino-5-(trifluoromethyl)phenyl]ethyl]amino]-2,8-dimethyl-6-(1,2,3,6-tetrahydropyridin-4-yl)pyrido[2,3-d]pyrimidin-7-one] | 188
13 | C[C@@H](Nc1ncnc2c1cc(C(=O)N1CC3CCC1CO3)c(=O)n2C)c1cccc(C(F)F)c1F (stereo partly shown) [Example 26-18] | 589
14 | CC(=O)N1CC2(CCN2C(=O)c2cc3c(N[C@H](C)c4cccc(C(F)F)c4F)ncnc3n(C)c2=O)C1 [Example 26-51] | 445
15 | C[C@@H](Nc1ncnc2c1cc(C(=O)N1CC3COCC31)c(=O)n2C)c1cccc(C(F)F)c1F (stereo partly shown) [Example 26-5] | 396
16 | C[C@@H](Nc1ncnc2c1cc(C(=O)N1CC3CCC(C1)O3)c(=O)n2C)c1cccc(C(F)F)c1F [Example 26-19] | 295
17 | COc1ccc(COC2(c3cc4c(N[C@H](C)c5cccc(C(F)F)c5F)ncnc4n(C)c3=O)CC2)cc1 [Example 61, 4-[[(1R)-1-[3-(difluoromethyl)-2-fluoro-phenyl]ethyl]amino]-6-[1-[(4-methoxyphenyl)methoxy]cyclopropyl]-8-methyl-pyrido[2,3-d]pyrimidin-7-one] | 647
18 | COC1(c2cc3c(N[C@H](C)c4nccc(C(F)F)c4F)ncnc3n(C)c2=O)CCN(C(C)=O)CC1 [Example 62, 6-(1-acetyl-4-methoxy-4-piperidyl)-4-[[(1R)-1-[4-(difluoromethyl)-3-fluoro-2-pyridyl]ethyl]amino]-8-methyl-pyrido[2,3-d]pyrimidin-7-one] | 262
19 | CC(=O)N1CC2(C1)CN(C(=O)c1cc3c(N[C@H](C)c4cccc(C(F)F)c4F)ncnc3n(C)c1=O)C2 [Example 26-40] | 453
20 | C[C@@H](Nc1ncnc2c1cc(N1CCOCC1)c(=O)n2C)c1cccc(C(F)(F)CO)c1 [Example 2, (R)-4-((1-(3-(1,1-difluoro-2-hydroxyethyl)phenyl)ethyl)amino)-8-methyl-6-morpholinopyrido[2,3-d]pyrimidin-7(8H)-one] | 59.8
21 | C[C@@H](Nc1ncnc2c1cc(C1=CCCOC1)c(=O)n2C)c1cccc(C(F)F)c1F [Example 1-6] | 180
22 | C[C@@H](Nc1ncnc2c1cc(C1(N)CCOCC1)c(=O)n2C)c1cccc(C(F)F)c1F [Example 31, 6-(4-aminooxan-4-yl)-4-{[(1R)-1-[3-(difluoromethyl)-2-fluorophenyl]ethyl]amino}-8-methyl-7H,8H-pyrido-[2,3-d]pyrimidin-7-one] | 14.5
23 | C[C@@H](Nc1ncnc2c1cc(C1(O)CCN(C(=O)OC(C)(C)C)C1)c(=O)n2C)c1cccc(C(F)F)c1F (stereo partly shown) [Example 28-9] | 369
24 | C[C@@H](Nc1ncnc2c1cc(C(=O)N1CCOC3(CCOC3)C1)c(=O)n2C)c1cccc(C(F)F)c1F (stereo partly shown) [Example 26-46] | 322

Results, then the compound that gave them:

Row | IC50 [nM] | SMILES
25 | 124 | CC(=O)N1CCC(C#N)(c2cc3c(N[C@H](C)c4cccc(C(F)F)c4F)ncnc3n(C)c2=O)C1 (stereo partly shown) [Example 36-5]
26 | 93.7 | COC1(c2cc3c(N[C@H](C)c4cccc(C(F)F)c4F)ncnc3n(C)c2=O)CCOCC1 [Example 32-56]
27 | 33.3 | C[C@@H](Nc1ncnc2c1cc(C1(C#N)CC3(C1)CS(=O)(=O)C3)c(=O)n2C)c1cccc(C(F)F)c1F [Example 36-6]
28 | 35.5 | C[C@@H](Nc1ncnc2c1cc(C1(F)CCS(=N)(=O)CC1)c(=O)n2C)c1cccc(C(F)F)c1F (stereo partly shown) [Example 29-14]
29 | 169 | CC(=O)N1CC(c2cc3c(N[C@H](C)c4cccc(C(F)F)c4F)ncnc3n(C)c2=O)C1 [Example 33-11]
30 | 285 | C[C@@H](Nc1ncnc2c1cc(C1CCS(=O)(=O)CC1)c(=O)n2C)c1cccc(-c2ccccc2CN)c1 [Example 33-17]
31 | 947 | COC1(c2cc3c(N[C@H](C)c4cccc(C(F)F)c4F)ncnc3n(C)c2=O)C[C@@H]2C[C@H]1CN2C(C)=O (stereo partly shown) [Example 32-18]
32 | 268 | CC(=O)N1CC[C@@](C#N)(c2cc3c(N[C@H](C)c4cccc(C(F)F)c4F)ncnc3n(C)c2=O)C1 [Example 36-11]
33 | 186 | COC1(c2cc3c(N[C@H](C)c4cccc(C(F)F)c4F)ncnc3n(C)c2=O)CN(C)C1 [Example 32-8]
34 | 53.2 | C[C@@H](Nc1ncnc2c1cc(C1CCS(=O)(=O)CC1)c(=O)n2C)c1ccc(-c2ccccc2CN)s1 [Example 33-18]
35 | 77.6 | CO[C@]1(c2cc3c(N[C@H](C)c4cccc(C(F)F)c4F)ncnc3n(C)c2=O)C[C@@H](C)N(C(C)=O)C1 [Example 32-47]
36 | 53.7 | COC1(c2cc3c(N[C@H](C)c4cccc(C(F)F)c4F)ncnc3n(C)c2=O)CCN(C(C)=O)C(C)(C)C1 (stereo partly shown) [Example 32-29]
37 | 39.1 | COC1(c2cc3c(N[C@H](C)c4cccc(C(F)F)c4F)ncnc3n(C)c2=O)CCN(S(C)(=O)=O)C1 (stereo partly shown) [Example 32-6]
38 | 28.6 | COC1(c2cc3c(N[C@H](C)c4cccc(C(F)F)c4F)ncnc3n(C)c2=O)CCN(C(=O)C2COC2)CC1 [Example 32-12]
39 | 181 | CC(=O)N1CC(C#N)(c2cc3c(N[C@H](C)c4cccc(C(F)F)c4F)ncnc3n(C)c2=O)C1 [Example 36-3]
40 | 18.1 | CO[C@]1(c2cc3c(N[C@H](C)c4cccc(C(F)F)c4F)ncnc3n(C)c2=O)CCN(C(C)=O)C(C)(C)C1 [Example 32-52]
41 | 41.8 | COC1(c2cc3c(N[C@H](C)c4cccc(C(F)F)c4F)nc(C)nc3n(C)c2=O)CC2(CN(C(C)=O)C2)C1 [Example 32-26]
42 | 45.6 | C[C@@H](Nc1ncnc2c1cc(C1(N)CCS(=O)(=O)C1)c(=O)n2C)c1cccc(C(F)F)c1F (stereo partly shown) [Example 31-7]
43 | 92.5 | C[C@@H](Nc1ncnc2c1cc(C1CCS(=O)(=O)CC1)c(=O)n2C)c1cccc(C(F)F)c1Cl [Example 33-4]
44 | 53.4 | C[C@@H](Nc1ncnc2c1cc(C1(F)CC3(C1)CS(=O)(=O)C3)c(=O)n2C)c1cccc(C(F)F)c1F [Example 29-8]

same assay, conditions: Homo sapiens, PC-9, 1 h, read-out: SOS1 pERK IC50

Row | SMILES | IC50 [nM]
45 | COC1(c2cc3c(N[C@H](C)c4cccc(C(F)F)c4F)ncnc3n(C)c2=O)CCN(C)CC1 [Example 32-3] | 2240

same assay, conditions: PC-9 cells (EGFR Ex19Del), 1 hour incubation, AlphaLISA SureFire Ultra p-ERK1/2; read-out: SOS1 pERK IC50

Row | IC50 [nM] | SMILES
46 | 53.7 | CC(=O)N1CCC2(c3cc4c(N[C@H](C)c5cccc(C(F)F)c5F)ncnc4n(C)c3=O)CC2C1 (single isomer, unassigned) [Example 54-1]
47 | 127 | COC1(c2cc3c(N[C@H](C)c4cccc(C(F)F)c4F)ncnc3n(C)c2=O)CCS(=O)(=O)C(C)C1 (stereo partly shown) [Example 32-66]
48 | 42.2 | C[C@@H](Nc1ncnc2c1cc(C1(F)CCS(=N)(=O)CC1)c(=O)n2C)c1cccc(C(F)F)c1F (stereo partly shown) [Example 29-15]
49 | 58.3 | CN=S1(=O)CCC(c2cc3c(N[C@H](C)c4cccc(C(F)F)c4F)ncnc3n(C)c2=O)CC1 (single isomer, unassigned) [Example 64-3]
50 | 386 | C[C@@H](Nc1ncnc2c1cc(C1(C#N)CCC3(CC1)CS(=O)(=NC1CC1)C3)c(=O)n2C)c1cccc(C(F)F)c1F (single isomer, unassigned) [Example 58-1]
51 | 85.4 | C[C@@H](Nc1ncnc2c1cc(C1CCP(C)(=O)CC1)c(=O)n2C)c1cccc(C(F)F)c1F (stereo partly shown) [Example 33-23]
52 | 58.9 | C[C@@H](Nc1ncnc2c1cc(C1(C#N)CCS(=O)(=O)C1)c(=O)n2C)c1cccc(C(F)F)c1F (stereo partly shown) [Example 36-15]
